Results as given in ChEMBL document CHEMBL4342527, “Discovery of Novel Fungal Lanosterol 14α-Demethylase (CYP51)/Histone Deacetylase Dual Inhibitors to Treat Azole-Resistant Candidiasis” (J Med Chem, 2020).
Values after ≈ are worked out from the molar mass of the structure shown.

Assays:
Candida tropicalis = experiment: Antifungal activity against azole-resistant Candida tropicalis 5008 after 48 hrs by spectrophotometry-based serial microdilution method; assay type: functional; conditions: Candida tropicalis, 5008, 48 h
Candida albicans [1] = experiment: Antifungal activity against azole-sensitive Candida albicans SC5314 after 48 hrs by spectrophotometry-based serial microdilution method; assay type: functional
Candida albicans [2] = experiment: Antifungal activity against azole-resistant Candida albicans 7781 after 48 hrs by spectrophotometry-based serial microdilution method; assay type: functional; conditions: Candida albicans, 7781, 48 h
Candida albicans [3] = experiment: Antifungal activity against azole-resistant Candida albicans 0304103 after 48 hrs by spectrophotometry-based serial microdilution method; assay type: functional; conditions: Candida albicans, 0304103, 48 h
Candida albicans [4] = experiment: Antifungal activity against azole-resistant Candida albicans 4108 after 48 hrs by spectrophotometry-based serial microdilution method; assay type: functional; conditions: Candida albicans, 4108, 48 h
Cryptococcus neoformans = experiment: Antifungal activity against azole-sensitive Cryptococcus neoformans H99 after 72 hrs by spectrophotometry-based serial microdilution method; assay type: functional, var grubii H99
[5] = Candida albicans, SC5314, 48 h, read-out: MIC80
[6] = Cryptococcus neoformans, var grubii H99 , 72 h, read-out: MIC80

SMILES	MIC80 (Candida tropicalis)	MIC80 (Candida albicans [1]; [5])	MIC80 (Candida albicans [2])	MIC80 (Candida albicans [3])	MIC80 (Candida albicans [4])	MIC80 (Cryptococcus neoformans; [6])	MIC80 (Candida albicans [1])	MIC80 (Cryptococcus neoformans)
CN(Cc1ccc(-n2cnn(CCCCCCCC(=O)NO)c2=O)cc1)CC(O)(Cn1cncn1)c1ccc(F)cc1F (racemic)	8 µg/mL (≈ 13.4 µM)	16 µg/mL (≈ 26.7 µM)	8 µg/mL (≈ 13.4 µM)	8 µg/mL (≈ 13.4 µM)	64 µg/mL (≈ 107 µM)	2 µg/mL (≈ 3.34 µM)		
CN(Cc1ccc(-n2cnn(CCCCCC(=O)NO)c2=O)cc1)CC(O)(Cn1cncn1)c1ccc(F)cc1F (racemic)	64 µg/mL (≈ 112 µM)	32 µg/mL (≈ 56.1 µM)	32 µg/mL (≈ 56.1 µM)	16 µg/mL (≈ 28 µM)	64 µg/mL (≈ 112 µM)	8 µg/mL (≈ 14 µM)		
CN(Cc1ccc(-n2cnn(CCCCC(=O)NO)c2=O)cc1)CC(O)(Cn1cncn1)c1ccc(F)cc1F (racemic)	> 64 µg/mL	32 µg/mL (≈ 57.5 µM)	> 64 µg/mL	64 µg/mL (≈ 115 µM)	> 64 µg/mL	64 µg/mL (≈ 115 µM)		
CN(Cc1ccc(-n2cnn(CCCOc3ccc(CC(=O)NO)cc3)c2=O)cc1)CC(O)(Cn1cncn1)c1ccc(F)cc1F (racemic)	4 µg/mL (≈ 6.17 µM)	64 µg/mL (≈ 98.7 µM)	4 µg/mL (≈ 6.17 µM)	32 µg/mL (≈ 49.3 µM)	32 µg/mL (≈ 49.3 µM)	8 µg/mL (≈ 12.3 µM)		
CN(Cc1ccc(OCCCCCCCC(=O)NO)cc1)CC(O)(Cn1cncn1)c1ccc(F)cc1F (racemic)	1 µg/mL (≈ 1.88 µM)	0.25 µg/mL (≈ 0.47 µM)	0.5 µg/mL (≈ 0.941 µM)	0.5 µg/mL (≈ 0.941 µM)	0.5 µg/mL (≈ 0.941 µM)	0.5 µg/mL (≈ 0.941 µM)		
CN(Cc1cccc(OCCCOc2ccc(C(=O)NO)cc2)c1)CC(O)(Cn1cncn1)c1ccc(F)cc1F (racemic)	4 µg/mL (≈ 7.05 µM)	1 µg/mL (≈ 1.76 µM)	4 µg/mL (≈ 7.05 µM)	2 µg/mL (≈ 3.52 µM)	2 µg/mL (≈ 3.52 µM)	0.125 µg/mL (≈ 0.22 µM)		
CN(Cc1ccc(-n2cnn(CCCCCCCCC(=O)NO)c2=O)cc1)CC(O)(Cn1cncn1)c1ccc(F)cc1F (racemic)	8 µg/mL (≈ 13.1 µM)	2 µg/mL (≈ 3.26 µM)	4 µg/mL (≈ 6.53 µM)	4 µg/mL (≈ 6.53 µM)	32 µg/mL (≈ 52.2 µM)	4 µg/mL (≈ 6.53 µM)		
CN(Cc1ccc(-n2cnn(CCCc3ccc(C(=O)NO)cc3)c2=O)cc1)CC(O)(Cn1cncn1)c1ccc(F)cc1F (racemic)	8 µg/mL (≈ 12.9 µM)	32 µg/mL (≈ 51.7 µM)	2 µg/mL (≈ 3.23 µM)	4 µg/mL (≈ 6.47 µM)	32 µg/mL (≈ 51.7 µM)	2 µg/mL (≈ 3.23 µM)		
CN(Cc1ccc(CCCC(=O)Nc2ccc(CC(=O)NO)cc2)cc1)CC(O)(Cn1cncn1)c1ccc(F)cc1F (racemic)	32 µg/mL (≈ 54 µM)	1 µg/mL (≈ 1.69 µM)	1 µg/mL (≈ 1.69 µM)	1 µg/mL (≈ 1.69 µM)	1 µg/mL (≈ 1.69 µM)	1 µg/mL (≈ 1.69 µM)		
O=C(NO)c1ccc(OCCCc2ncnn2CC(O)(Cn2cncn2)c2ccc(F)cc2F)cc1 (racemic)	> 64 µg/mL	64 µg/mL (≈ 128 µM)	8 µg/mL (≈ 16 µM)	32 µg/mL (≈ 64.1 µM)	64 µg/mL (≈ 128 µM)	64 µg/mL (≈ 128 µM)		
O=C(NO)c1ccc(OCCCCc2ncn(CC(O)(Cn3cncn3)c3ccc(F)cc3F)n2)cc1 (racemic)	> 64 µg/mL	4 µg/mL (≈ 7.79 µM)	64 µg/mL (≈ 125 µM)	> 64 µg/mL	> 64 µg/mL	64 µg/mL (≈ 125 µM)		
CN(Cc1ccc(CCCCOc2ccc(CC(=O)NO)cc2)cc1)CC(O)(Cn1cncn1)c1ccc(F)cc1F (racemic)	0.5 µg/mL (≈ 0.863 µM)	0.125 µg/mL (≈ 0.216 µM)	1 µg/mL (≈ 1.73 µM)	0.5 µg/mL (≈ 0.863 µM)	1 µg/mL (≈ 1.73 µM)	0.5 µg/mL (≈ 0.863 µM)		
CN(Cc1ccc(OCCCCCC(=O)NO)cc1)CC(O)(Cn1cncn1)c1ccc(F)cc1F (racemic)	8 µg/mL (≈ 15.9 µM)	1 µg/mL (≈ 1.99 µM)	1 µg/mL (≈ 1.99 µM)	2 µg/mL (≈ 3.97 µM)	4 µg/mL (≈ 7.94 µM)	1 µg/mL (≈ 1.99 µM)		
CN(Cc1ccc(-n2cnn(CCOc3ccc(CC(=O)NO)cc3)c2=O)cc1)CC(O)(Cn1cncn1)c1ccc(F)cc1F (racemic)	8 µg/mL (≈ 12.6 µM)	2 µg/mL (≈ 3.15 µM)	4 µg/mL (≈ 6.3 µM)	4 µg/mL (≈ 6.3 µM)	32 µg/mL (≈ 50.4 µM)	4 µg/mL (≈ 6.3 µM)		
CN(Cc1ccc(OCCCCCCC(=O)NO)cc1)CC(O)(Cn1cncn1)c1ccc(F)cc1F (racemic)	2 µg/mL (≈ 3.86 µM)	1 µg/mL (≈ 1.93 µM)	1 µg/mL (≈ 1.93 µM)	1 µg/mL (≈ 1.93 µM)	1 µg/mL (≈ 1.93 µM)	1 µg/mL (≈ 1.93 µM)		
CN(Cc1ccc(OCCCOc2ccc(CCC(=O)NO)cc2)cc1)CC(O)(Cn1cncn1)c1ccc(F)cc1F (racemic)	4 µg/mL (≈ 6.72 µM)	1 µg/mL (≈ 1.68 µM)	2 µg/mL (≈ 3.36 µM)	2 µg/mL (≈ 3.36 µM)	4 µg/mL (≈ 6.72 µM)	1 µg/mL (≈ 1.68 µM)		
CN(Cc1ccc(CCCC(=O)Nc2ccc(C(=O)NO)cc2)cc1)CC(O)(Cn1cncn1)c1ccc(F)cc1F (racemic)	8 µg/mL (≈ 13.8 µM)	4 µg/mL (≈ 6.91 µM)	8 µg/mL (≈ 13.8 µM)	16 µg/mL (≈ 27.7 µM)	32 µg/mL (≈ 55.3 µM)	8 µg/mL (≈ 13.8 µM)		
CN(Cc1ccc(-n2cnn(CCCCCCC(=O)NO)c2=O)cc1)CC(O)(Cn1cncn1)c1ccc(F)cc1F (racemic)	64 µg/mL (≈ 109 µM)	64 µg/mL (≈ 109 µM)	32 µg/mL (≈ 54.7 µM)	16 µg/mL (≈ 27.4 µM)	64 µg/mL (≈ 109 µM)	8 µg/mL (≈ 13.7 µM)		
CN(Cc1cccc(OCCCOc2ccc(CC(=O)NO)cc2)c1)CC(O)(Cn1cncn1)c1ccc(F)cc1F (racemic)	2 µg/mL (≈ 3.44 µM)	2 µg/mL (≈ 3.44 µM)	2 µg/mL (≈ 3.44 µM)	4 µg/mL (≈ 6.88 µM)	2 µg/mL (≈ 3.44 µM)	1 µg/mL (≈ 1.72 µM)		
CN(Cc1ccc(-n2cnn(CCCC(=O)NO)c2=O)cc1)CC(O)(Cn1cncn1)c1ccc(F)cc1F (racemic)	8 µg/mL (≈ 14.7 µM)	8 µg/mL (≈ 14.7 µM)	32 µg/mL (≈ 59 µM)	64 µg/mL (≈ 118 µM)	8 µg/mL (≈ 14.7 µM)	2 µg/mL (≈ 3.69 µM)		
CN(Cc1ccc(OCCCCC(=O)NO)cc1)CC(O)(Cn1cncn1)c1ccc(F)cc1F (racemic)	8 µg/mL (≈ 16.3 µM)	2 µg/mL (≈ 4.09 µM)	2 µg/mL (≈ 4.09 µM)	2 µg/mL (≈ 4.09 µM)	8 µg/mL (≈ 16.3 µM)	2 µg/mL (≈ 4.09 µM)		
CN(Cc1ccc(CCCOc2ccc(CC(=O)NO)cc2)cc1)CC(O)(Cn1cncn1)c1ccc(F)cc1F (racemic)	2 µg/mL (≈ 3.54 µM)	0.125 µg/mL (≈ 0.221 µM)	0.25 µg/mL (≈ 0.442 µM)	0.5 µg/mL (≈ 0.884 µM)	0.5 µg/mL (≈ 0.884 µM)	0.5 µg/mL (≈ 0.884 µM)		
O=C(Cc1ccc(OCCCc2ncn(CC(O)(Cn3cncn3)c3ccc(F)cc3F)n2)cc1)NO (racemic)	64 µg/mL (≈ 125 µM)	32 µg/mL (≈ 62.3 µM)	8 µg/mL (≈ 15.6 µM)	32 µg/mL (≈ 62.3 µM)	> 64 µg/mL	32 µg/mL (≈ 62.3 µM)		
CN(Cc1ccc(OCCCOc2ccc(C(=O)NO)cc2)cc1)CC(O)(Cn1cncn1)c1ccc(F)cc1F (racemic)	0.25 µg/mL (≈ 0.44 µM)	0.125 µg/mL (≈ 0.22 µM)	1 µg/mL (≈ 1.76 µM)	0.5 µg/mL (≈ 0.881 µM)	1 µg/mL (≈ 1.76 µM)	0.5 µg/mL (≈ 0.881 µM)		
O=C(NO)c1ccc(OCCCCc2ncnn2CC(O)(Cn2cncn2)c2ccc(F)cc2F)cc1 (racemic)	> 64 µg/mL	32 µg/mL (≈ 62.3 µM)	> 64 µg/mL	32 µg/mL (≈ 62.3 µM)	> 64 µg/mL	64 µg/mL (≈ 125 µM)		
O=C(NO)c1ccc(OCCCc2ncn(CC(O)(Cn3cncn3)c3ccc(F)cc3F)n2)cc1 (racemic)	64 µg/mL (≈ 128 µM)	8 µg/mL (≈ 16 µM)	8 µg/mL (≈ 16 µM)	64 µg/mL (≈ 128 µM)	32 µg/mL (≈ 64.1 µM)	64 µg/mL (≈ 128 µM)		
O=C(Cc1ccc(OCCCc2ncnn2CC(O)(Cn2cncn2)c2ccc(F)cc2F)cc1)NO (racemic)	> 64 µg/mL	8 µg/mL (≈ 15.6 µM)	16 µg/mL (≈ 31.2 µM)	32 µg/mL (≈ 62.3 µM)	> 64 µg/mL	64 µg/mL (≈ 125 µM)		
O=C(CCCCCCC(=O)Nc1ccccc1)NO [VORINOSTAT]							>64 µg/mL	>64 µg/mL
